Measurements as given in ChEMBL document CHEMBL1122165, “Retinoids at the threshold: their biological significance and therapeutic potential” (J Med Chem, 1982).

What was measured:
[1] = tested on: Mus musculus; assay: Lowest daily intraperitoneal dose causing hypervitaminosis A symptoms was determined in a 2-week period in mice; format: functional
[2] = tested on: Mus musculus; assay: Antipapilloma activity was determined after intraperitoneal administration in mice; format: functional; conditions: ip

CCOC(=O)/C=C(C)/C=C/C=C(C)/C=C/c1c(C)sc(C)c1C
Dose [1]: 200 mg/kg | ED50 [2]: 75 mg/kg

COc1cc(C)c(/C=C/C(C)=C/C=C(F)/C(C)=C/C(=O)O)c(C)c1C
Dose [1]: 25 mg/kg | ED50 [2]: 11.5 mg/kg

CCOC(=O)/C=C(C)/C=C/C=C(C)/C=C/c1c(Cl)cc(OC)c(C)c1Cl
Dose [1]: 12 mg/kg | ED50 [2]: 6 mg/kg

CCOC(=O)c1ccc(/C=C(\C)c2ccc3c(c2)C(C)(C)CCC3(C)C)cc1 [AROTINOID]
Dose [1]: 0.1 mg/kg | ED50 [2]: 0.05 mg/kg

CCOC(=O)/C=C(C)/C=C/C=C(C)/C=C/c1c(C)cc(OC)c(C)c1C [ETRETINATE]
Dose [1]: 50 mg/kg | ED50 [2]: 25 mg/kg

CC1=C(/C=C/C(C)=C/C=C/C(C)=C\C(=O)O)C(C)(C)CCC1 [ISOTRETINOIN]
Dose [1]: 400 mg/kg | ED50 [2]: 800 mg/kg

CC1=C(/C=C/C(C)=C/C=C/C(C)=C/C(=O)O)C(C)(C)CCC1 [TRETINOIN]
Dose [1]: 80 mg/kg | ED50 [2]: 400 mg/kg
